One assay concerns MCF-7 cells. The assay can be described thus: Breast Cancer Cell Viability Assays (MCF-7, CellTiter-Glo). Conditions: 5 days' compound exposure; for IC50: Homo sapiens, MCF7, 120 h. Type of assay: cell-based. The method, boiled down:
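MCF-7 cells (320/well, RPMI with 10% FBS) exposed for 5 days to an eleven-point semilog series, 0.3–0.000003 μM final. Viability read by CellTiter-Glo luminescence, expressed as background-corrected percent of untreated cells.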
In general terms: Cellular ATP, detected with luciferase, serves as a proxy for viable cell number.

Another assay deals with T1, ER-α in MCF-7 cells (Homo sapiens, UniProt P03372).
T1 construct: endogenous in cells; host or cells: MCF-7
T1 sequence (P03372 1-595): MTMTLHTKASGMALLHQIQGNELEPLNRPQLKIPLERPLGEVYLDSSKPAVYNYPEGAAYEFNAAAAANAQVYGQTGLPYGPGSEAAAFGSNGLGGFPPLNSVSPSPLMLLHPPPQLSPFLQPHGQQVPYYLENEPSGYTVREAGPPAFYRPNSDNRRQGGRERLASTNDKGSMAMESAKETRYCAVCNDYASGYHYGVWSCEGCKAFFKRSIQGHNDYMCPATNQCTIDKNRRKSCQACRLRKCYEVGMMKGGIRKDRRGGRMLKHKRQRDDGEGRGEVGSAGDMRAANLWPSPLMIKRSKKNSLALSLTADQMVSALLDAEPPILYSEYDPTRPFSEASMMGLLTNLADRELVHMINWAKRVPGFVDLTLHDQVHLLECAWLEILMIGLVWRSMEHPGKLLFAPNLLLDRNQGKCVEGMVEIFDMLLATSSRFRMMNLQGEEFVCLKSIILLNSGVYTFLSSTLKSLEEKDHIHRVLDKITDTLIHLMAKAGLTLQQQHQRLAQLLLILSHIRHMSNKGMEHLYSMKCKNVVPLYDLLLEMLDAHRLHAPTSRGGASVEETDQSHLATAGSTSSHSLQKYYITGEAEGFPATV
The assay can be described thus: Breast Cancer Cell ER-α In Cell Western Assay (SP1). Type of assay: cell-based. To be noted: 4 or 24 hr post compound addition; for Emax: MCF7, SP1 antibody, read-out: ER-α In Cell Western Assay (SP1) Max Response; for DC50: SP1 antibody, read-out: ER-α In Cell Western Assay (SP1) IC50. The method in brief: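 MCF-7 cells in charcoal-stripped FBS medium, treated with 11-point semilog dilutions (0.3–0.000003 μM final) for 4 or 24 h. Fixed cells immunostained with SP1 antibody (800 nm) and DRAQ5 DNA (700 nm); ER/DNA ratio expressed as % of untreated cells.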

SMILES strings stand for the structures. Bounds are passed on as bounds.

A word on the IC50: it is the point on the concentration scale where inhibition reaches its midpoint. Consider `CC/C(=C(/c1ccc(/C=C/C(=O)O)cc1)c1ccc2[nH]nc(F)c2c1)c1ccccc1Cl` [Example 261, (E)-3-(4-((E)-2-(2-Chlorophenyl)-1-(3-fluoro-1H-indazol-5-yl)but-1-en-1-yl)phenyl)acrylic acid], for which, in the assay on MCF-7 cells, the “MCF7 Viability Assay Max Response” value was “++ (++ = a single % value ≧ 40%)” and the IC50 was at most 100 nM. In addition, at ER-α in MCF-7 cells, the Emax was at least 40% and the DC50 is at most 100 nM.
Take `CC/C(=C(/c1ccc(/C=C/C(=O)O)cc1)c1ccc2[nH]nc(F)c2c1)c1ncccc1Cl` [Example 262, (E)-3-(4-((E)-2-(3-Chloropyridin-2-yl)-1-(3-fluoro-1H-indazol-5-yl)but-1-en-1-yl)phenyl)acrylic acid]: in the assay on MCF-7 cells, the “MCF7 Viability Assay Max Response” value is recorded as “++ (++ = a single % value ≧ 40%)” and the IC50 is at most 100 nM. Moreover, on ER-α in MCF-7 cells, the Emax is at least 40% and the DC50 is at most 100 nM.
`CC/C(=C(/c1ccc(/C=C/C(=O)O)cc1)c1ccc2[nH]nc(F)c2c1)c1ncccc1C(F)(F)F` [Example 263, (E)-3-(4-((E)-1-(3-Fluoro-1H-indazol-5-yl)-2-(3-(trifluoromethyl)pyridin-2-yl)but-1-en-1-yl)phenyl)acrylic acid]: in the assay on MCF-7 cells, the “MCF7 Viability Assay Max Response” value is given as “++ (++ = a single % value ≧ 40%)” and the IC50 is at most 100 nM. Besides, at ER-α in MCF-7 cells, the Emax is at least 40% and the DC50 is at most 100 nM.
On to `CC/C(=C(/c1ccc(/C=C/C(=O)O)cc1)c1ccc2[nH]nc(F)c2c1)c1ncc(Cl)cc1Cl` [Example 264, (E)-3-(4-((E)-2-(3,5-Dichloropyridin-2-yl)-1-(3-fluoro-1H-indazol-5-yl)but-1-en-1-yl)phenyl)acrylic acid], for which, in the assay on MCF-7 cells, the “MCF7 Viability Assay Max Response” value is “++ (++ = a single % value ≧ 40%)” and the IC50 was at most 100 nM. At ER-α in MCF-7 cells, the Emax was at least 40% and the DC50 is at most 100 nM.
Turning to `O=C(O)/C=C/c1ccc(/C(=C(\c2ccccc2)C2CCC2)c2ccc3[nH]nc(F)c3c2)cc1F` [Example 265, (E)-3-(4-((Z)-2-Cyclobutyl-1-(3-fluoro-1H-indazol-5-yl)-2-phenylvinyl)-2-fluorophenyl)acrylic acid], in the assay with MCF-7 cells, the “MCF7 Viability Assay Max Response” value is “++ (++ = a single % value ≧ 40%)” and the IC50 was at most 100 nM. Also, at ER-α in MCF-7 cells, the Emax was at least 40% and the DC50 was at most 100 nM.
With `C/C(=C\C(=O)O)c1ccc(/C(=C(\c2ccccc2)C2CCC2)c2ccc3[nH]nc(F)c3c2)cc1` [Example 266, (E)-3-(4-((E)-2-Cyclobutyl-1-(3-fluoro-1H-indazol-5-yl)-2-phenylvinyl)phenyl)but-2-enoic acid], in the assay with MCF-7 cells, the “MCF7 Viability Assay Max Response” value is “++ (++ = a single % value ≧ 40%)” and the IC50 was at most 100 nM. At ER-α in MCF-7 cells, the Emax was at least 40% and the DC50 was at most 100 nM.
With `C/C(=C\c1ccc(/C(=C(\c2ccccc2)C2CCC2)c2ccc3[nH]nc(F)c3c2)cc1)C(=O)O` [Example 267, (E)-3-(4-((E)-2-Cyclobutyl-1-(3-fluoro-1H-indazol-5-yl)-2-phenylvinyl)phenyl)-2-methylacrylic acid], in the assay with MCF-7 cells, the “MCF7 Viability Assay Max Response” value is “++ (++ = a single % value ≧ 40%)” and the IC50 is at most 100 nM. Moreover, at ER-α in MCF-7 cells, the Emax was at least 40% and the DC50 was at most 100 nM.
Take `O=C(O)/C=C/c1ccc(/C(=C(\c2ccc(Cl)cc2Cl)C2CCC2)c2ccc3[nH]nc(F)c3c2)cn1` [Example 268, (E)-3-(5-((Z)-2-Cyclobutyl-2-(2,4-dichlorophenyl)-1-(3-fluoro-1H-indazol-5-yl)vinyl)pyridin-2-yl)acrylic acid]: in the assay on MCF-7 cells, the “MCF7 Viability Assay Max Response” value was “++ (++ = a single % value ≧ 40%)” and the IC50 is at most 100 nM. Also, at ER-α in MCF-7 cells, the Emax was at least 40% and the DC50 was at most 100 nM.
On to `O=C(O)/C=C/c1ccc(/C(=C(\c2ccc(F)cc2C(F)(F)F)C2CCC2)c2ccc3[nH]nc(F)c3c2)cn1` [Example 269, (E)-3-(5-((Z)-2-Cyclobutyl-1-(3-fluoro-1H-indazol-5-yl)-2-(4-fluoro-2-(trifluoromethyl)phenyl)vinyl)pyridin-2-yl)acrylic acid], for which, in the assay on MCF-7 cells, the “MCF7 Viability Assay Max Response” value was “++ (++ = a single % value ≧ 40%)” and the IC50 is at most 100 nM. Besides, at ER-α in MCF-7 cells, the Emax is at least 40% and the DC50 was at most 100 nM.
Turning to `COc1ccc(/C(=C(\c2ccc(/C=C/C(=O)O)nc2)c2ccc3[nH]nc(F)c3c2)C2CCC2)c(Cl)c1` [Example 270, (E)-3-(5-((Z)-2-(2-Chloro-4-methoxyphenyl)-2-cyclobutyl-1-(3-fluoro-1H-indazol-5-yl)vinyl)pyridin-2-yl)acrylic acid], in the assay on MCF-7 cells, the “MCF7 Viability Assay Max Response” value is on record as “++ (++ = a single % value ≧ 40%)” and the IC50 was at most 100 nM. At ER-α in MCF-7 cells, the Emax is at least 40% and the DC50 is at most 100 nM.
`O=C(O)/C=C/c1ccc(/C(=C(\c2ccc(F)cc2Cl)C2CCC2)c2ccc3[nH]nc(F)c3c2)cc1F` [Example 271, (E)-3-(4-((Z)-2-(2-Chloro-4-fluorophenyl)-2-cyclobutyl-1-(3-fluoro-1H-indazol-5-yl)vinyl)-2-fluorophenyl)acrylic acid]: in the assay on MCF-7 cells, the “MCF7 Viability Assay Max Response” value is given as “++ (++ = a single % value ≧ 40%)” and the IC50 was at most 100 nM. Also, at ER-α in MCF-7 cells, the Emax is at least 40% and the DC50 is at most 100 nM.
Regarding `O=C(O)/C=C/c1ccc(/C(=C(\c2ccc(OC(F)(F)F)cc2Cl)C2CCC2)c2ccc3[nH]nc(F)c3c2)cn1` [Example 272, (E)-3-(5-((Z)-2-(2-Chloro-4-(trifluoromethoxy)phenyl)-2-cyclobutyl-1-(3-fluoro-1H-indazol-5-yl)vinyl)pyridin-2-yl)acrylic acid], in the assay on MCF-7 cells, the “MCF7 Viability Assay Max Response” value is on record as “++ (++ = a single % value ≧ 40%)” and the IC50 is at most 100 nM. Also, at ER-α in MCF-7 cells, the Emax is at least 40% and the DC50 is at most 100 nM.
For `O=C(O)/C=C/c1ccc(/C(=C(\c2ccc(OC(F)(F)F)cc2Cl)C2CCC2)c2ccc3[nH]nc(F)c3c2)cc1` [Example 273, (E)-3-(4-((E)-2-(2-Chloro-4-(trifluoromethoxy)phenyl)-2-cyclobutyl-1-(3-fluoro-1H-indazol-5-yl)vinyl)phenyl)acrylic acid], in the assay with MCF-7 cells, the “MCF7 Viability Assay Max Response” value is “++ (++ = a single % value ≧ 40%)” and the IC50 is at most 100 nM. Besides, on ER-α in MCF-7 cells, the Emax is at least 40% and the DC50 was at most 100 nM.
On to `O=C(O)/C=C/c1ccc(/C(=C(\c2ccc(C(F)(F)F)cc2Cl)C2CCC2)c2ccc3scnc3c2)cc1` [Example 274, (E)-3-(4-((E)-1-(Benzo[d]thiazol-5-yl)-2-(2-chloro-4-(trifluoromethyl)phenyl)-2-cyclobutylvinyl)phenyl)acrylic acid], for which, in the assay on MCF-7 cells, the “MCF7 Viability Assay Max Response” value was “++ (++ = a single % value ≧ 40%)” and the IC50 was at most 100 nM. Moreover, at ER-α in MCF-7 cells, the Emax is at least 40% and the DC50 was at most 100 nM.
For the molecule `O=C(O)/C=C/c1ccc(/C(=C(\c2ccc(C(F)(F)F)cc2Cl)C2CCC2)c2ccc3[nH]nc(F)c3c2)cc1` [Example 275, (E)-3-(4-((E)-2-(2-Chloro-4-(trifluoromethyl)phenyl)-2-cyclobutyl-1-(3-fluoro-1H-indazol-5-yl)vinyl)phenyl)acrylic acid], in the assay with MCF-7 cells, the “MCF7 Viability Assay Max Response” value was “++ (++ = a single % value ≧ 40%)” and the IC50 was at most 100 nM. Besides, on ER-α in MCF-7 cells, the Emax was at least 40% and the DC50 was at most 100 nM.

The values are drawn from patent US9499538B2, “Estrogen receptor modulators and uses thereof” (Seragon Pharmaceuticals, Inc., priority 2012, dated 2016).
